molecular target: T1, human TRPM8 (Homo sapiens, UniProt Q7Z2W7); experiment: Luminescence readout assay for measuring intracellular calcium (aequorin), hTRPM8 antagonism; type: cell-based; details: CHO cell line expressing human TRPM8 and aequorin; activation by icilin, L-menthol or cold buffer (table does not say which)
T1 construct: expressed in transfected cells; host or cells: Chinese hamster ovary (CHO) cells, T-REx tetracycline-inducible expression system (Invitrogen), co-transfected with pcDNA3.1 jellyfish aequorin
T1 sequence (Q7Z2W7 whole entry): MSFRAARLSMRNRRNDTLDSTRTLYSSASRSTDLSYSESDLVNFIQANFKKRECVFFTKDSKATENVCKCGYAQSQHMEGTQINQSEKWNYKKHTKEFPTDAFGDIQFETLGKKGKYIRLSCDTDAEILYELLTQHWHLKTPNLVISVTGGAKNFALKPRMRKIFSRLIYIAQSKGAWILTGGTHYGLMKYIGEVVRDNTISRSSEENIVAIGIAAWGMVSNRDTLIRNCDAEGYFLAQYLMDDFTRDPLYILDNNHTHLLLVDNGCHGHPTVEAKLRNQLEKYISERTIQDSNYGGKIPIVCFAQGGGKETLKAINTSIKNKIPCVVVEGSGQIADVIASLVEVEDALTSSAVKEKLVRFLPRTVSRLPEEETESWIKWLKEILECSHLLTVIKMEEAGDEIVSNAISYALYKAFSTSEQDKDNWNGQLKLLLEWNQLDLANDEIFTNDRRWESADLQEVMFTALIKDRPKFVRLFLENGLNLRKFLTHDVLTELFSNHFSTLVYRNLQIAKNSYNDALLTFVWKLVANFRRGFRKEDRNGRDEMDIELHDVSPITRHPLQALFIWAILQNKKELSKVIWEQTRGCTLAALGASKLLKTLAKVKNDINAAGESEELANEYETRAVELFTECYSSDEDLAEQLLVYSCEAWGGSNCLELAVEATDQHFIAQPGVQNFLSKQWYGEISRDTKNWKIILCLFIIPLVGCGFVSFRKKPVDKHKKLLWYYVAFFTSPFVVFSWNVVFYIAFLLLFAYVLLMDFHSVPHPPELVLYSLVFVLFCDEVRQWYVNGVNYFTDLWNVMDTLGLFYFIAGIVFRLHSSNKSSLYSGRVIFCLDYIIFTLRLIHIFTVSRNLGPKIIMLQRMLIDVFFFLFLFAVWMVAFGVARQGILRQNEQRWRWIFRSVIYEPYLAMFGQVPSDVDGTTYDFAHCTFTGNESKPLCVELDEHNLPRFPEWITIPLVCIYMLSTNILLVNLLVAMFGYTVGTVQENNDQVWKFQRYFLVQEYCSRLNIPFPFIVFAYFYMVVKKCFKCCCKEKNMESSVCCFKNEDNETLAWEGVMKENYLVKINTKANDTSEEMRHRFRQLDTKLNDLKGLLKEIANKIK
Method: Luminescence Readout Assay for Measuring Intracellular Calcium.
A stable Chinese hamster ovary cell line expressing human TRPM8 was generated using tetracycline inducible T-REx™ expression system from Invitrogen, Inc. (Carlsbad, Calif.). […] Twenty four hours before the assay, cells were seeded in 96-well plates and TRPM8 expression was induced with 0.5 μg/mL tetracycline. […] Potential antagonists were added 2.5 min prior to the addition of agonist, […], 100 µM L-menthol, or 1 min prior to the addition of cold buffer (<10° C.). The luminescence was measured by a CCD camera based FLASH-luminometer built by Amgen, Inc. A cooling device attached to FLASH luminometer was used for cold activation.

IC50 [nM]	Compound
708	O=C(Nc1cccc(I)c1)N[C@@H](c1ccc(C(F)(F)F)cc1)c1ncccc1C(F)(F)F [Example 124, (S)-1-(3-iodophenyl)-3-((4-(trifluoro-methyl)-phenyl)(3-(trifluoro-methyl)-pyridin-2-yl)-methyl)urea (2,2,2-trifluoro-acetate)]
1500	COC(=O)[C@H](C)NC(=O)N[C@@H](c1ccc(C(F)(F)F)cc1)c1ncccc1C(F)(F)F [Example 79, (S)-methyl-2-(3-((S)-(4-(trifluoro-methyl)-phenyl)(3-(trifluoro-methyl)-pyridin-2-yl)-methyl)-ureido)-propanoate (2,2,2-trifluoro-acetate)]
900	C[C@H](NC(=O)N[C@@H](c1ccc(C(F)(F)F)cc1)c1ccccc1Br)C(F)(F)F [Example 154, 1-((S)-(2-bromophenyl) (4-(trifluoro-methyl)-phenyl)-methyl)-3-((S)-1,1,1-trifluoro-propan-2-yl)-urea]
811	O=C(Nc1cccnc1)N[C@@H](c1ccc2ncccc2c1)c1ncccc1C(F)(F)F [Example 17, (S)-1-(pyridin-3-yl)-3-(quinolin-6-yl(3-(trifluoro-methyl)-pyridin-2-yl)-methyl)urea]
663	CC(C)(C)OC(=O)N[C@@H](c1ccc(C(F)(F)F)cc1)c1ccccn1 [Example 169, (S)-tert-Butyl(pyridin-2-yl(4-(trifluoromethyl)phenyl)methyl)-carbamate 2,2,2-trifluoroacetate]
97	O=C(Nc1cccnc1)N[C@@H](c1ccc(C(F)(F)F)cc1)c1ccccn1 [Example 30, (S)-1-(pyridin-2-yl(4-(trifluoro-methyl)-phenyl)-methyl)-3-(pyridin-3-yl)-urea]
4060	COc1cccc([C@@H](C)NC(=O)N[C@@H](c2ccc(C(F)(F)F)cc2)c2ncccc2C(F)(F)F)c1 [Example 128, 1-((R)-1-(3-methoxy-phenyl)ethyl)-3-((S)-(4-(trifluoro-methyl)-phenyl)(3-(trifluoro-methyl)-pyridin-2-yl)-methyl)urea (2,2,2-trifluoro-acetate)]
491	Cn1cc(NC(=O)N[C@@H](c2ccc(C(F)(F)F)cc2)c2ncccc2F)ccc1=O [Example 162, (S)-1-((3-fluoropyridin-2-yl)(4-(trifluoro-methyl)-phenyl)-methyl)-3-(1-methyl-6-oxo-1,6-dihydropyridin-3-yl)urea]
3830	Cc1cccc(CNC(=O)N[C@@H](c2ccc(C(F)(F)F)cc2)c2ncccc2C(F)(F)F)c1 [Example 147, (S)-1-(3-methylbenzyl)-3-((4-(trifluoro-methyl)-phenyl)(3-(trifluoro-methyl)-pyridin-2-yl)-methyl)urea (2,2,2-trifluoro-acetate)]
5710	CC(C)(C)c1ccccc1NC(=O)N[C@@H](c1ccc(C(F)(F)F)cc1)c1ncccc1C(F)(F)F [Example 71, (S)-1-(tert-butylphenyl)-3-((4-(trifluoro-methyl)-phenyl)(3-(trifluoro-methyl)-pyridin-2-yl)-methyl)urea (2,2,2-trifluoro-acetate)]
133	CC(C)(C)NC(=O)N[C@@H](c1ccc(C(F)(F)F)cc1)c1ccccc1Br [Example 116, (S)-1-((2-bromophenyl) (4-(trifluoro-methyl)-phenyl)-methyl)-3-tert-butylurea]
221	FC(F)(F)c1ccc([C@H](NC(=S)Nc2cccnc2)c2ncccc2C(F)(F)F)cc1 [Example 122, (S)-1-(pyridin-3-yl)-3-((4-(trifluoro-methyl)-phenyl)(3-(trifluoro-methyl)-pyridin-2-yl)-methyl)-thiourea]
28	C=CCc1cccnc1[C@@H](NC(=O)N[C@@H](C)C(F)(F)F)c1ccc(C(F)(F)F)cc1 [Example 158, 1-((S)-(3-allylpyridin-2-yl)(4-(trifluoro-methyl)-phenyl)-methyl)-3-((S)-1,1,1-trifluoro-propan-2-yl)-urea]
211	O=C(N[C@@H](c1ccc(OC(F)(F)F)c(F)c1)c1ncccc1F)OC1CCOCC1 [Example 176, (S)-tetrahydro-2H-pyran-4-yl ((3-fluoro-4-(trifluoromethoxy)phenyl)(3-fluoropyridin-2-yl)methyl)carbamate]
723	Cc1cccc([C@H](NC(=O)Nc2cccnc2)c2ncccc2C(F)(F)F)c1 [Example 7, (S)-1-((3-methylphenyl) (3-(trifluoro-methyl)-pyridin-2-yl)-methyl)-3-(pyridin-3-yl)-urea]
2220	CCOC(=O)C(NC(=O)N[C@@H](c1ccc(C(F)(F)F)cc1)c1ncccc1C(F)(F)F)C(C)C (stereo partly drawn) [Example 98, ethyl 3-methyl-2-(3-((S)-(4-(trifluoro-methyl)-phenyl)(3-(trifluoro-methyl)-pyridin-2-yl)-methyl)-ureido)-butanoate (2,2,2-trifluoro-acetate)]
112	COc1ccc(NC(=O)N[C@@H](c2ccc(C(F)(F)F)cc2)c2ncccc2C(F)(F)F)cc1OC [Example 74, (S)-1-(3,4-dimethoxy-phenyl)-3-((4-(trifluoro-methyl)-phenyl)(3-(trifluoro-methyl)-pyridin-2-yl)-methyl)urea (2,2,2-trifluoro-acetate)]
3210	O=C(Nc1ccc(=O)[nH]c1)N[C@@H](c1ccc(C(F)(F)F)cc1)c1ncccc1F [Example 165, (S)-1-((3-fluoropyridin-2-yl)(4-(trifluoro-methyl)-phenyl)-methyl)-3-(6-oxo-1,6-dihydropyridin-3-yl)urea]
407	COc1ncc(NC(=O)N[C@@H](c2ccc(C(F)(F)F)cc2)c2ncccc2C(F)(F)F)cn1 [Example 159, (S)-1-(2-Methoxypyrimidin-5-yl)-3-((4-(trifluoromethyl)-phenyl)(3-(trifluoromethyl)pyridin-2-yl)methyl)urea]
474	Cc1ccccc1NC(=O)N[C@@H](c1ccc(C(F)(F)F)cc1)c1ncccc1C(F)(F)F [Example 145, (S)-1-(o-tolyl)-3-((4-(trifluoro-methyl)-phenyl)(3-(trifluoro-methyl)-pyridin-2-yl)-methyl)urea (2,2,2-trifluoro-acetate)]
3140	CCOc1cccc(NC(=O)N[C@@H](c2ccc(C(F)(F)F)cc2)c2ncccc2C(F)(F)F)c1 [Example 126, (S)-1-(3-ethoxyphenyl)-3-((4-(trifluoro-methyl)-phenyl)(3-(trifluoro-methyl)-pyridin-2-yl)-methyl)urea (2,2,2-trifluoro-acetate)]
1650	COc1ncc(NC(=O)N[C@@H](c2ccc(C(F)(F)F)cc2)c2ncccc2F)cn1 [Example 160, (S)-1-((3-fluoropyridin-2-yl)(4-(trifluoro-methyl)-phenyl)-methyl)-3-(2-methoxy-pyrimidin-5-yl)urea]
562	O=C(Nc1ccc2ncccc2c1)N[C@@H](c1ccc(C(F)(F)F)cc1)c1ncccc1C(F)(F)F [Example 58, (S)-1-(quinolin-6-yl)-3-((4-(trifluoro-methyl)-phenyl)(3-(trifluoro-methyl)-pyridin-2-yl)-methyl)urea]
163	O=C(NCc1cccc(F)c1)N[C@@H](c1ccc(C(F)(F)F)cc1)c1ncccc1C(F)(F)F [Example 72, (S)-1-(3-fluorobenzyl)-3-((4-(trifluoro-methyl)-phenyl)(3-(trifluoro-methyl)-pyridin-2-yl)-methyl)urea (2,2,2-trifluoro-acetate)]

— patent US8778941B2, “TRPM8 antagonists and their use in treatments” (AMGEN Inc., priority 2011, dated 2014)
